# Assay results taken from patent US8278072B1, “Method for synthesis of sialylated products using reversible sialylation” (Health Research, Inc., priority 2007, dated 2012).
# Key:
# [1] = target: T1, ST6Gal I (Cloned rat liver) (Rattus norvegicus, UniProt P13721); assay: Forward (direct) sialyltransferase activity, ST6Gal-I; assay type: biochemical; settings: donor CMP-[9-3H]NeuAc, acceptor Galβ1,4GlcNAcβ-O-Bn
# T1 construct: purchased Calbiochem
# T1 sequence (P13721 1-403): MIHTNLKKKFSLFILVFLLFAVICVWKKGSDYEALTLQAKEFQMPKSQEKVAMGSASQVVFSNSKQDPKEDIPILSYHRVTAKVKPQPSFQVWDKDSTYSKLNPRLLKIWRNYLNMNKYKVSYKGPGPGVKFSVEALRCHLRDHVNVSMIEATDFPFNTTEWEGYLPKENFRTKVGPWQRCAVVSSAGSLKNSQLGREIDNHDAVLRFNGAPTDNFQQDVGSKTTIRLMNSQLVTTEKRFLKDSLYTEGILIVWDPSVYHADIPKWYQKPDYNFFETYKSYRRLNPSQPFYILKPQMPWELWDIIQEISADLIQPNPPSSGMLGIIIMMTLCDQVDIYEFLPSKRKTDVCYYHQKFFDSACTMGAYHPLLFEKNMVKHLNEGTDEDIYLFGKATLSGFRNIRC
# Method: (§1) FIG. 5. Effect of 5′-nucleotides on direct sialyltransferase activity (panel a) and reverse sialylation (panel b). a. Varying concentrations of 5′-CDP or 5′-CMP were added to 100 mM acceptor (specified below), 0.15 mM CMP-[9-^3H]NeuAc and either ST3Gal-II (0.2 mU), ST3Gal-III (0.5 mU) or ST6Gal-I (0.2 mU) for 4 h at 37° C. Products were separated using Sep-Pak C18 method. ST3Gal-III activity was measured using acceptor 4-O-MeGalβ1,4GlcNAcβ-O-Bn in the presence of 5′-CDP (●) and 5′-CMP (◯). ST6Gal-I activity was measured using Gal β1,4GlcNAcβ-O-Bn in the presence of 5′-CDP (▴) and 5′-CMP (Δ). ST3Gal-II using D-Fucβ1,3GalNAcα-O-Bn in the presence of 5′-CDP (▪) and 5′-CMP (□). b) Reverse sialylation by ST3Gal-II was measured in reaction mixtures containing 0.2 mM [9-^3H] [3], 7 mM 5′-CMP, ST3Gal-II (2 mU), D-Fucβ1,3GalNAcα-OBn (3.0 mM) and varying doses of either 5′-CDP (▴), 5′-UMP (◯) or 2-deoxy 5′-CMP (●) for 4 hours at 37° C. Reaction product ([9-^3H]NeuAcα2,3DFucβ1,3 GalNAcα-O-Bn) was isolated using Sep-Pak C18 method. In some runs, where was absent, the amount of CMP-NeuAc produced was quantified using the Dowex-1 Formate method in the presence of varying doses of 5′-CDP (▪).
# (§2) Besides pH other distinctions were also observed between forward and reverse sialylation. In this regard, citrate ions tended to inhibit forward sialylation but not reverse sialylation activity (Table V). For these studies, the effect of citrate on the forward sialylation activity of ST3Gal-I, ST3Gal-II, ST3Gal-III and ST6Gal-I was examined. Reverse sialylation activity of ST3Gal-II was also measured in terms of: i) the formation of CMP-NeuAc from 5′-CMP; and ii) the transfer of NeuAc from this newly synthesized CMP-NeuAc to another O-glycan. From the data (Table V), it is evident that citrate inhibits the direct sialylation activity of all the enzymes mentioned above. However, both the synthesis of CMP-[9-^3H]NeuAc from 5′-CMP as well as the synthesis of [9-^3H]NeuAcα2,3D-Fucβ1,3 GalNAcα-O-Bn using the newly formed CMP-[9-^3H]NeuAc through reverse sialylation of ST3Gal-II was not inhibited by citrate.
# (§3) The effect of 5′-nucleotides on forward sialylation (FIG. 5a) and reverse sialylation (FIG. 5b) were examined. […] The overall formation of [9-^3H]NeuAcα2,3D-Fucβ1,3 GalNAcα-O-Bn by the two-step reverse sialylation process, however, was inhibited by 5′-CDP and this is consistent with the finding that 5′-CDP inhibits forward sialylation in the second step.
# [2] = target: T2, ST3Gal II (Cloned rat liver) (Rattus norvegicus, UniProt Q11205); assay: Forward (direct) sialyltransferase activity, ST3Gal-II; assay type: biochemical; settings: donor CMP-[9-3H]NeuAc, acceptor [5], varying nucleotide concentrations
# T2 construct: purchased Calbiochem
# T2 sequence (Q11205 1-350): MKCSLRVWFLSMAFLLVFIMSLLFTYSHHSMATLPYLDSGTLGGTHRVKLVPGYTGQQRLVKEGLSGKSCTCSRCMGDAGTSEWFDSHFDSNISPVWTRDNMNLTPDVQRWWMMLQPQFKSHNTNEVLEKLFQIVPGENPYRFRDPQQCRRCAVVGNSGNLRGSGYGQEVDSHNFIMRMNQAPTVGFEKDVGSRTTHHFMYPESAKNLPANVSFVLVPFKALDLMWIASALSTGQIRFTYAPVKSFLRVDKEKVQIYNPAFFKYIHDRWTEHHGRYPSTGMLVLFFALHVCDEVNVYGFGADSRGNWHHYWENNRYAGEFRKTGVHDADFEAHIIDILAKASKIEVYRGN
# Method: as §1, §2, §3
SMILES,Effect on forward sialylation activity of ST6Gal-I [1],Effect on forward sialylation activity of ST3Gal-II [2]
Nc1ccn([C@@H]2O[C@H](COP(=O)(O)OP(=O)(O)O)[C@@H](O)[C@H]2O)c(=O)n1 [5′-CDP],inhibited,inhibited
"Nc1ccn([C@@H]2O[C@H](COP(=O)(O)O)[C@@H](O)[C@H]2O)c(=O)n1 [5′-CMP, Cytidine 5′-monophosphate]",inhibited,inhibited
